From patent publication US11161865B2, “Radiolabeled and fluorescent PARP inhibitors for imaging and radiotherapy” (THE TRUSTEES OF THE UNIVERSITY OF PENNSYLVANIA, priority 2017, dated 2021)

Experiments:
[1] = system: phosphorylated ATM and H2AX; assay: Flow cytometry of phosphorylated ATM and H2AX (DNA double strand breaks); format: cell-based; details: 1 μCi/mL
Protocol: To accomplish this, γH2AX and PARP-1 were measured after being treated NLF cells for 1, 4, or 24 hours at doses of 0.1, or 1 μCi/mL. Data was analyzed by quantifying small regions of interest in the nucleus of cells and by nuclear co-localization. […] In flow cytometry experiments, DNA damage was measured by quantifying phosphorylated ATM and H2AX. Lastly, cell cycle analysis was evaluated using propidium iodide staining in control vs. [^211At]-Compound 1 treated cells.

[2] = system: IMR-05 neuroblastoma xenograft; assay: In vivo biodistribution in IMR-05 neuroblastoma xenograft model; parameters: species or system nude SHC mice; details: 5 μCi intravenously; for tumor versus normal tissue distribution of activity: 2 hrs
Protocol: To evaluate the in vivo biodistribution of [211A]-Compound 1, an IMR-05 neuroblastoma xenograft model in nude SHC mice was utilized. Xenografts were generated by the subcutaneous injection of 5-10 million IMR-05 neuroblastoma cells. Tumors were then allowed to engraft for 3-4 weeks when they reached 200-300 mm^3. Animals were then intravenously injected with 5 μCi of [211At]-Compound 1 and tissues were harvested at time points of […], 1 and 2 hrs. Samples were then assayed for radioactivity on a gamma counter and data was normalized to percent injected dose by divining the amount of radioactivity in the tissue by the total amount injected. […] Tissue was then flash frozen and 20 micron thick sections were produced using a cryotome. Sections were then exposed to phosphor films and films were read on a digital phosphorimager.

[3] = system: neuroblastoma cell lines; assay: Cell viability dose response curves in neuroblastoma cell lines; format: cell-based; details: in vitro, FIG. 2A
Protocol: Two sets of cell viability assays were performed to characterize [^211At]-Compound 1 in neuroblastoma, ovarian, and breast cancer cells. […] The first assay performed was a screen of 25 cell lines at a single concentration of 5 μCi/mL. […] Following treatment cell viability was assessed using a commercially available kit that measures ATP and data was normalized to healthy controls to produce % surviving fraction. […] Cells were treated for 72 hrs followed by evaluation of cell viability. […] Effective concentrations to reduce 50% growth compared to healthy controls were calculated using standard curve fitting software.

O=C1NCCn2c(-c3ccc([211At])cc3)nc3cccc1c32 [[^211At]-Compound 1]
increase in phosphorylation of ATM and H2AX (DNA double strand breaks) compared to control [1]: 98% | significant deastatination (accumulation of activity in lung, thyroid (neck), or stomach) [2]: not observed | tumor versus normal tissue distribution of activity [2]: concentration of activity in the tumor | tumor versus normal tissue distribution of activity ([2]; listed as 211At-Compound 1): higher tumor to tissue ratios in the majority of normal organs | specificity of cytotoxicity [3]: PARP-1 specific
